Reference: ChEMBL document CHEMBL6078649, “Discovery of Chalcone Derivatives as Bifunctional Molecules with Anti-SARS-CoV-2 and Anti-inflammatory Activities” (J Nat Prod, 2024)

Test system: SARS-CoV-2
Experiment: Antiviral activity against SARS-CoV-2 infected in human Huh-7 cells harboring viral replicon/EGFP/Neo genes assessed as inhibition of EGFP expression incubated for 24 hrs
Format: functional, organism-based
Details: Severe acute respiratory syndrome coronavirus 2, Huh-7, 24 h

Row | Compound | EC50
1 | O=C(/C=C/c1cc(O)c(O)c(O)c1)c1ccc(F)cc1 | 11.7 µM
2 | CC(=O)Oc1c(Cl)c(/C=C/C(=O)c2ccc(F)cc2)c(Cl)c(OC(C)=O)c1OC(C)=O | 40.3 µM
3 | O=C(/C=C/c1c(Cl)c(O)c(O)c(O)c1Cl)c1ccc(F)cc1 | 19.9 µM
4 | O=C(CCc1cc(O)c(O)c(O)c1)c1ccc(F)cc1 | 32.1 µM
